Earlier results on three compounds are cited in patent US9662356B1, “Propolis-metal nanoparticle composition and methods of use” (Vets Plus, Inc., priority 2015, dated 2017).

In this data set the test system is otitis externa. The following applies: case history: treated previously over the course of the year.
Take `C[C@@H]1[C@H](O)[C@@H](C)/C=C/C=C/CC/C=C/C=C/C=C/C=C/C(O[C@H]2O[C@H](C)[C@@H](O)[C@H](N)[C@@H]2O)CC2O[C@](O)(CC(O)C(O)CCC(O)CC(O)CC(O)CC(=O)O[C@H]1C)CC(O)C2C(=O)O` (stereo partly drawn) [nystatin]: the “outcome of previous antibiotic treatment of otitis externa” value (from here on “outcome”) is “to no avail”.

Consider neomycin, for which the “outcome” value is listed as “to no avail”.

As to polymyxin B, the “outcome” value is given as “to no avail”.
